{"source": "the supplement of paper PMC10307832", "assay_in_all_cases": "relative viability (nuclei count vs DMSO), 5 days (fraction); higher = more cells survive", "key": {"Shikonin + OSI-027": {"compound": "CC(C)=CC[C@@H](O)C1=CC(=O)c2c(O)ccc(O)c2C1=O [Shikonin] + COc1cccc2cc(-c3nc([C@H]4CC[C@H](C(=O)O)CC4)n4ncnc(N)c34)[nH]c12 [OSI-027] (partner 0.5 µM)", "method_in_brief": "(§1)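 Lung cancer cell lines were seeded in 1536-well plates and dosed by pin tool the next day, with either a single drug or a fixed anchor-drug dose combined with five library-drug doses (not always all listed) spaced in √10 steps. Five days later, one step fixed the cells and stained their nuclei (final 0.05% Triton X-100, 1% formaldehyde, 1 ug/ml Hoechst), and nuclei were counted on 4× images. Relative viability is the nuclei count in treated wells divided by the count in vehicle wells, and each value is the median of duplicate plates.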"}, "[1]": {"compound": "CC(C)N(CCCNC(=O)Nc1ccc(C(C)(C)C)cc1)C[C@H]1O[C@@H](n2ccc3c(N)ncnc32)[C@H](O)[C@@H]1O + CCNC(=O)c1noc(-c2cc(C(C)C)c(O)cc2O)c1-c1ccc(CN2CCOCC2)cc1 [Luminespib] (partner 0.01 µM)", "method_in_brief": "as §1"}, "Shikonin + Olaparib": {"compound": "CC(C)=CC[C@@H](O)C1=CC(=O)c2c(O)ccc(O)c2C1=O [Shikonin] + O=C(c1cc(Cc2n[nH]c(=O)c3ccccc23)ccc1F)N1CCN(C(=O)C2CC2)CC1 [Olaparib] (partner 8 µM)", "method_in_brief": "as §1"}, "Shikonin + Phenformin": {"compound": "CC(C)=CC[C@@H](O)C1=CC(=O)c2c(O)ccc(O)c2C1=O [Shikonin] + N=C(N)NC(=N)NCCc1ccccc1 [Phenformin] (partner 250 µM)", "method_in_brief": "as §1"}}, "data": [{"cell line": "UMC-11", "values": [{"measurement": "relative viability", "setting": "Shikonin + OSI-027; first compound 0.01 µM", "value": 0.469}, {"measurement": "relative viability", "setting": "Shikonin + OSI-027; first compound 0.1 µM", "value": 0.532}, {"measurement": "relative viability", "setting": "Shikonin + OSI-027; first compound 0.3162 µM", "value": 0.492}, {"measurement": "relative viability", "setting": "Shikonin + OSI-027; first compound 1 µM", "value": 0.526}, {"measurement": "relative viability", "setting": "[1]; first compound 0.08 µM", "value": 1.01}, {"measurement": "relative viability", "setting": "[1]; first compound 0.253 µM", "value": 0.992}, {"measurement": "relative viability", "setting": "[1]; first compound 0.8 µM", "value": 0.915}, {"measurement": "relative viability", "setting": "[1]; first compound 2.53 µM", "value": 1}, {"measurement": "relative viability", "setting": "[1]; first compound 8 µM", "value": 0.977}, {"measurement": "relative viability", "setting": "Shikonin + Olaparib; first compound 0.01 µM", "value": 0.332}, {"measurement": "relative viability", "setting": "Shikonin + Olaparib; first compound 0.1 µM", "value": 0.374}, {"measurement": "relative viability", "setting": "Shikonin + Olaparib; first compound 0.3162 µM", "value": 0.346}, {"measurement": "relative viability", "setting": "Shikonin + Olaparib; first compound 1 µM", "value": 0.374}, {"measurement": "relative viability", "setting": "Shikonin + Phenformin; first compound 0.01 µM", "value": 0.337}, {"measurement": "relative viability", "setting": "Shikonin + Phenformin; first compound 0.1 µM", "value": 0.329}, {"measurement": "relative viability", "setting": "Shikonin + Phenformin; first compound 0.3162 µM", "value": 0.348}, {"measurement": "relative viability", "setting": "Shikonin + Phenformin; first compound 1 µM", "value": 0.331}]}]}
